In data set [1] the test system is human PBMCs. Nature of the data set: Soluble CD28 generation in SEB or CMV stimulated PBMCs, human CD28 ELISA. The data set is classed as cell-based. Conditions: SEB 1 ng/mL; inhibitor 0.01-1 μM. The protocol:
Protease Inhibitors—Protease inhibitors were added at the indicated concentrations at the start of each experiment. In week long assays another portion of the inhibitors was added after 3 days at the final concentration. Protease inhibitors used are TAPI-1 (Cayman, Cat. No. 18505), GM6001 (Santa Cruz, Cat. No. SC-203979), TMI-1 (Sigma, Cat. No. PZ0336) and GI254023X (Sigma, Cat. No. SML0789). Where mentioned the protease cocktail was composed with a mixture of TAPI-1 and GM6001 at equimolar ratio.
(ELISA stands for enzyme-linked immunosorbent assay.)

Data set [2] relates to human PBMCs.
The next data set deals with SCC-25 cells. The data set is described as follows: Co-culture of SCC-25 cancer cell line with monocytes in trans-well assay. The data set is classed as cell-based, human. The protocol: Co-culture of SCC-25 cancer cell line with monocytes in trans-well based assay—4×10^4 SCC-25 cells were plated on the bottom of 24 well plate with 1×10^5 monocytes placed on cell culture insert (Millipore, Cat. No. MCHT241148) with or without indicated treatments for 4 days in starvation media without serum.
Next, cells of the head and neck cancer cell line SCC-25 were incubated either alone or with monocytes in a trans-well assay. SCC-25 cells grown alone were administered IL-6 as a positive control, and indeed cell proliferation, as measured by MTT (FIG. 9C, upper) and as measured by % confluency (FIG. 9C, lower), was increased.

Data set [3] has as its system human PBMCs. The data set is described as follows: SEB or CMV stimulated PBMCs with anti-PD1 and soluble CD28. The data set is classed as cell-based.
For data set [4], the system named is autologous monocytes and CD3 T cells. Nature of the data set: Autologous monocytes CD3 MLR with CMV peptide. The format is cell-based, human. How it is done:
The mixed cells were stimulated for 5 days with CMV peptide (0.5 μg/mL) with and without increasing concentrations of recombinant human sCD28.
The MLR was run as before only with and without sCD28 and with and without an anti-PD1 antibody (MK3475, 5 μg/mL) (FIG. 8B).

Another data set relates to isolated PBMCs. The data set is described as follows: CMV stimulated PBMC with constant sCD28 and CD80-Fc titration. The data set is classed as cell-based, human. Conditions: CMV peptide 3 days.
Data set [5] concerns isolated CD3 human T cells. Nature of the data set: T cells stimulation with OKT3 and CD80-Fc, IFN gamma. The data set is classed as cell-based. The note with it: OKT3 2 μg/mL. The protocol: T cells stimulation with OKT3—0.1×10^6 isolated CD3 T cells (from healthy donors) were stimulated with indicated amount of anti-CD3 clone OKT3 for 48-72 hr at 37° C. When stated recombinant human CD80-Fc (2 μg/mL, R&D system) was added in soluble form. Antibodies or VHHs to CD28 or controls were added at the indicated concentration in soluble form.
CD80 is one of the two main ligands for mCD28 along with CD86. The extracellular domain of CD80 fused to an Fc moiety has been used as an immune stimulatory molecule and is under investigation as a cancer therapy. In order to examine the effect of sCD28 on CD80-Fc efficacy, isolated CD3 human T cells were stimulated with plate bound anti-CD3 antibody (OKT3, 2 μg/mL) in the presence of 2 μg/mL soluble recombinant human CD80-Fc.

In data set [6] the test system is H22 hepatocellular carcinoma cells. The data set is described as follows: H22 syngeneic mouse model. The format is in vivo. Conditions: Balb/c mice, H22 allograft, with anti-PD-1.
The next data set relates to PBMC of cancer patients. The data set is described as follows: SEB stimulated PBMC of cancer patients with sCD28 and MK-3475. The data set is classed as cell-based, human. The note with it: SEB 5 ng/mL, 3 days.
The test system of data set [7] is human PBMCs. Nature of the data set: CMV stimulation of PBMCs with ectopic recombinant human CD28 or CTLA-4, cytokine ELISA/multiplex. The format is cell-based. The note with it: CMV 0.5 μg/mL.
Data set [8] has as its system human PBMCs. Nature of the data set: Lymphocyte clustering of SEB stimulated PBMCs (IncuCyte). The format is cell-based. Conditions: SEB 1 ng/mL. The protocol: Next, human PBMCs were stimulated with SEB (1 ng/mL) without or in the presence of recombinant human CD28. Human IgG was used as control. Lymphocyte clustering, a hallmark of immune activation was monitored using the IncuCyte® S3 Live-Cell, with pictures taken every 12 hours. […] It is well established that during in-vitro immune response antigen presenting cells (APC) cluster with one another and with other cell types, and clustering is essential for the antigen specific activation of resting lymphocytes.

For another data set, the system named is isolated human monocytes. The data set is described as follows: Stimulation of monocytes with recombinant human CD28 (IDO, PD-L1, PD-L2). The data set is classed as cell-based. Conditions: IFNγ 1000 U/mL, recombinant human CD28 10 μg/mL. The protocol:
Stimulation of monocytes with recombinant human CD28—1.5×10^6 monocytes were plated at 24 well plate in RPMI medium with […] IFN gamma (R&D system, Cat. No. 285-IF) in the presence of recombinant human CD28 at the indicated concentrations for 48 hrs. The generated cell populations were tested for the indicated phenotypes by FACS analysis of relevant markers (IDO, PD-L1 and PD-L2) and by analysis of secretion of characteristic cytokines (IL-6).
The enzyme indoleamine 2,3-dioxygenase (IDO) has been implicated in immune modulation through its ability to catabolize the essential amino acid Tryptophan. It is expressed by different immune cells and also by many cancer cells. Tryptophan shortage inhibits T lymphocytes maturation and proliferation, while Kynurenine, the end product of tryptophan catabolism, is also known as immunosuppressive metabolite that promotes immune tolerance in various physiological and pathophysiological conditions. To test the effect of sCD28 on IDO, isolated human monocytes were stimulated for 48 hr with IFNγ (1000 U/mL) in the presence of control human IgG or with recombinant human CD28 (10 μg/mL). After incubation, the monocytes were stained intracellularly for human IDO (FIG. 7E). To facilitate intracellular staining the cells were fixed and permeabilized with BD Cytofix/Cytoperm Buffer Kit.
In order to elucidate the mechanism by which sCD28 inhibits the pro-activation effect of anti-PD-1 therapy, the expression of PD-1 ligands on immune cells in the presence of sCD28 was examined. Isolated human monocytes were stimulated for 48 hours with IFNγ (1000 U/mL) in the presence of control human IgG (10 μg/mL) or with recombinant human CD28 (10 μg/mL). After incubation the monocytes were stained for PD-L1 (FIG. 8C, left) and PD-L2 (FIG. 8C, right).

The mark [9] stands for this setting: CMV peptide 0.5 μg/mL, 5 days, increasing sCD28.

Read-outs that look alike come from different tables or passages of the source.

Turning to `CNC(=O)[C@@H](NC(=O)[C@H](CCCc1ccccc1)[C@H](C)N(O)C=O)C(C)(C)C` [GI254023X], the “sCD28 release from activated immune cells” value in the data set on human PBMCs [1] is “almost complete inhibition of sCD28 release”. Moreover, in the data set with human PBMCs [2] (SEB 1 ng/mL, with vs without ADAM inhibitor), the “viability of the immune cells (MTT)” value is reported as “no significant difference”.

With `CC#CCOc1ccc(S(=O)(=O)N2CCSC(C)(C)[C@@H]2C(=O)NO)cc1` [TMI-1], in the data set with human PBMCs [2], the “viability of the immune cells (MTT)” value is listed as “no significant difference”.

As to “IL-6: cytokine given to SCC-25 cells as a positive control [reference compound]”, in the data set on SCC-25 cells (SCC-25 cells grown alone, positive control), the “cell proliferation (MTT and % confluency)” value was “increased”.

Turning to “Pembrolizumab [MK-3475, reference compound]”, in the data set on human PBMCs [3] (MK3475 5 μg/mL, 3 days), the “proinflammatory cytokine secretion (IFN gamma and IL-2)” value is given as “increased proinflammatory cytokine secretion”. Further, in data set [4] (MK3475 5 μg/mL), the IFN gamma secretion entry is “increased IFN gamma secretion” and the TGF beta secretion result is “decreased TGF beta secretion”.

For the molecule “sCD28: recombinant human CD28 lacking the transmembrane and cytoplasmic domains”, the “CD80-Fc needed for immune response in presence of sCD28” value with isolated PBMCs is given as “an increased amount of CD80-Fc was required”. For the same molecule, the “effect on MK-3475 immune activation” value with human PBMCs [3] (sCD28 2 and 10 μg/mL combined with MK3475 5 μg/mL) is given as “abrogated completely this immune activation effect”. The “effect on CD80-Fc secondary activation” value in [5] (constant CD80-Fc, titration of sCD28) was “counteracted the secondary activation effect of the CD80-Fc”. In [6], the “effect on anti-PD-1 therapy” value is reported as “nearly completely abrogated in two of the mice”. For the same molecule, in the data set on PBMC of cancer patients (combination), the “effect on MK-3475” value was “rendered the effect of MK-3475 nonexistent”. Besides, the “concentration of human IFN gamma in the supernatant” value in the data set on PBMC of cancer patients (with or without MK-3475) is given as “greatly reduced”. Further, in the data set on SCC-25 cells (coculture with monocytes), the “cell proliferation (MTT and % confluency)” value is “by far the greatest increase”. Further, in the data set with human PBMCs [7], the IFN gamma secretion result is on record as “dose-dependent inhibition of IFN gamma secretion”, the IL-6 secretion entry is listed as “increase IL-6 cytokine secretion” and the interleukin-10 secretion entry is listed as “elevation”. In addition, in data set [4] (setting [9]), the IFN gamma secretion entry is “inhibit IFN gamma secretion”, the IL-1B secretion result was “increasing the secretion”, the IL-10 secretion result is reported as “increasing the secretion” and the TGF beta secretion entry is recorded as “increasing the secretion”. Moreover, the “effect of MK-3475 in the presence of sCD28” value in data set [4] (MK3475 5 μg/mL with sCD28) was “significantly reduced”. Moreover, in the data set on human PBMCs [8], the lymphocyte cluster formation entry was “diminish the amount and size of cluster formation”. Further, in the data set with isolated human monocytes (48 hours), the “PD-L1 expression on monocytes” value was “upregulated” and the “PD-L2 expression on monocytes” value was “upregulated”. Further, in the data set with isolated human monocytes (48 hr), the “IDO expression in monocytes” value is on record as “strongly enhanced IDO expression”.

B1: CD80-Fc: extracellular domain of CD80 fused to an Fc moiety (protein)
chain: VIHVTKEVKEVATLSCGHNVSVEELAQTRIYWQKEKKMVLTMMSGDMNIWPEYKNRTIFDITNNLSIVILALRPSDEGTYECVVLKYEKDAFKREHLAEVTLSVKADFPTPSISDFEIPTSNIRRIICSTSGGFPEPHLSWLENGEELNAINTTVSQDPETELYAVSSKLDFNMTTNHSFMCLIKYGHLRVNQTFNWNTTKQEHFPDN
modifications: left off: a dimerising Fc or GST
notes: extracellular domain of CD80 fused to an Fc moiety
On to B1, for which the IFN gamma secretion entry in data set [5] (CD80-Fc 2 μg/mL) is reported as “increased IFN gamma secretion”.

Values taken from patent US12503510B2, “Small shedding blocking agents” (BIOND BIOLOGICS LTD., priority 2019, dated 2025).
